Measured values as given in patent publication US20090098189A1, “AZAINDOLES AS INHIBITORS OF SOLUBLE ADENYLATE CYCLASE” (priority 2007, published 2009).

Assays:
[1] = known from the literature; cited from earlier work
[2] = biological target: soluble, sperm-specific adenylate cyclase (sAC) (Homo sapiens, UniProt Q96PN6); test: sAC assay (HTRF cAMP detection); type: biochemical; conditions: read-out: IC50 (inhibition of soluble adenylate cyclase)
Text: In a suitable buffer system, soluble, sperm-specific adenylate cyclase catalyzes the conversion of adenosine triphosphate (ATP) to cyclic adenosine monophosphate (cAMP) and pyrophosphate. Free cAMP generated in this way is then used in a competitive detection technique, in which the binding of a europium cryptate Eu[K]-labeled anti-cAMP antibody (anti-cAMP-Eu[K]-AB) to a modified allophycocyanine-1 molecule labeled with cAMP molecules (cAMP-XL665) is prevented. In the absence of exogenous cAMP, after excitation at 335 nm there is Fluorescence Resonance Energy Transfer (FRET) between the anti-cAMP-Eu[K]-AB (FRET donor) and the cAMP-XL665 molecule (FRET acceptor). This process is quantified, time-resolved, on the basis of the emission of the FRET acceptor XL665 (665 nm and 620 nm). A decrease in signal (measured as Well Ratio; calculated from the Formula: [(E665 nm/E620 nm)×10000]) can be attributed to the presence of cAMP and thus to the activity of sAC. First, 1.5 μl of the test substance (in 30% DMSO) is placed in each well of a 384-well test plate (polystyrene; 384, NV), and in the solvent controls only 30% DMSO. Then 10 μl of a dilute sAC enzyme solution is applied (enzyme stock solution in 300 mM NaCl, 10% glycerol; pH 7.6; enzyme intermediate and final dilution a) 1:10 and b) 1:2000 in each case in: 1.0 mM MnCl2; 0.2% BSA; 50 mM Tris pH 7.5 in H2O). The enzyme reaction is started by adding 5 μl of the ATP substrate solution (200 μM ATP in H2O) and after incubation (25 min at room temperature) stopped by adding 5 μl of the stop solution (200 μM EDTA in PBS). Finally the whole reaction is adjusted to a total volume of 91.5 μl by adding 70 μl PBS.
Next, 8 μl of detection solution 1 is placed in a well of the 384-well measuring plate (measuring plate: polystyrene; 384, SV—black; detection solution 1: 50 μl cAMP-XL665; 950 μl reconstituted buffer; 2200 μl PBS; cAMP-XL665: prepared by adding 5 ml H2O to the lyophilized product according to the instructions in Cis bio Kit: #62AMPPEC; storage: in aliquots at −80° C.). Next, 3 μl from the 91.5 μl is added to the corresponding well of the test plate. Finally, 8 μl of detection solution 2 is added (detection solution 2: 50 μl anti-cAMP-Eu[K]-AB; 950 μl reconstituted buffer; 2200 μl PBS; anti-cAMP-Eu[K]-AB: prepared according to the instructions in Cis bio Kit: #62AMPPEC; storage: in aliquots at −80° C.).
After further incubation for 90 min at room temperature, the HTRF result is measured either on the Packard Discovery or with the RubiStar HTRF measuring instrument (delay: 50 μs; integration time: 400 μs).

Chain of soluble, sperm-specific adenylate cyclase (sAC) (Q96PN6 whole entry): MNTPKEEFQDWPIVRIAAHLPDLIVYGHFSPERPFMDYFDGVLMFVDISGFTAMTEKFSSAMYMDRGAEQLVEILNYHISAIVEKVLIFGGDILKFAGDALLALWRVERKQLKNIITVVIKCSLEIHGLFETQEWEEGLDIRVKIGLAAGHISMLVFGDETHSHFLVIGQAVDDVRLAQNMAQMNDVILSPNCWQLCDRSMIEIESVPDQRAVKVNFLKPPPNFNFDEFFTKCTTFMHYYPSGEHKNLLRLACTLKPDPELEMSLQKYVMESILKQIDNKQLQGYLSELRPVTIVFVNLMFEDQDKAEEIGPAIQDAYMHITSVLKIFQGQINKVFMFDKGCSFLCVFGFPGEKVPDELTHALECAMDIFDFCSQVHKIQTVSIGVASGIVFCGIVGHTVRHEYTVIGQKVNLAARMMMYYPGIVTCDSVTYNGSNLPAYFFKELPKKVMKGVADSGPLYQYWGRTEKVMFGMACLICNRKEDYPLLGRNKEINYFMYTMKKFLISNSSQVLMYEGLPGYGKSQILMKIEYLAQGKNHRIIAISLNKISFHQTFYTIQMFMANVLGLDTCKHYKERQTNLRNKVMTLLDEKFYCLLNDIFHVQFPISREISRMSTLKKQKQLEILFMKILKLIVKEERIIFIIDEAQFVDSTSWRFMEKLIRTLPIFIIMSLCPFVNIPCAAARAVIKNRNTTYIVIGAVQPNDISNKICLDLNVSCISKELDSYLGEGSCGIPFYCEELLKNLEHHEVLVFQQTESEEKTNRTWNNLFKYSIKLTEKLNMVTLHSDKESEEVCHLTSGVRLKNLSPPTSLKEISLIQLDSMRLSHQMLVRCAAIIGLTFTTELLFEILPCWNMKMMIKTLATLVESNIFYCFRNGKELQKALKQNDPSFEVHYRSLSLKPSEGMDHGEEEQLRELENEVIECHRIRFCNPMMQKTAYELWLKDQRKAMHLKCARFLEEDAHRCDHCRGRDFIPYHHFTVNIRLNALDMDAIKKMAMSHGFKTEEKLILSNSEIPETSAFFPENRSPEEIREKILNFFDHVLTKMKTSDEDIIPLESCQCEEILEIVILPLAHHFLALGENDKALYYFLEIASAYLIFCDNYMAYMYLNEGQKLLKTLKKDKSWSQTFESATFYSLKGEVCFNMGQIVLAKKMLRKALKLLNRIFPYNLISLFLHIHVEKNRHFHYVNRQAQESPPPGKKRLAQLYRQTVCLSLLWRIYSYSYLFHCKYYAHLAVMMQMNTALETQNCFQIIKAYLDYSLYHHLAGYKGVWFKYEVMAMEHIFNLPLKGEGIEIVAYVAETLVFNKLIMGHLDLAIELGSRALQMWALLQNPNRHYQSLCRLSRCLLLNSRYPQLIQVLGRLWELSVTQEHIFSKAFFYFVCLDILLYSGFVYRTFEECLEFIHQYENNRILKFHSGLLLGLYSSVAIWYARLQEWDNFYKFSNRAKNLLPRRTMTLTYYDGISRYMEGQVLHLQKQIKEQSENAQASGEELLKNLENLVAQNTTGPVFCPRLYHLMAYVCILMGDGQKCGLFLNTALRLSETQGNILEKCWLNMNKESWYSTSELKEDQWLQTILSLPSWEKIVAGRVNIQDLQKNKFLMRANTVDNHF

Row | Structure (SMILES) | toxicity [1] | IC50 [2] [nM]
1 | Cc1cc2c(C(C)C)c(O)c(O)c(C=O)c2c(O)c1-c1c(C)cc2c(C(C)C)c(O)c(O)c(C=O)c2c1O [gossypol] | inherently toxic | 
2 | O=C(N[C@H]1CCC[C@H]1O)c1[nH]c2ncc(NS(=O)(=O)c3ccc(C(F)(F)F)cc3)cc2c1-c1ccccc1 [Example 22, (1S,2R)—N-(2-Hydroxycyclopentyl)-3-phenyl-5-(4-trifluoromethyl-phenylsulfonylamino)-1H-pyrrolo[2,3-b]pyridine-2-carboxamide] |  | 25
3 | CC(C)(C)c1ccc(S(=O)(=O)Nc2cnc3[nH]c(C(=O)N[C@H]4CCC[C@H]4O)c(-c4ccccc4)c3c2)cc1 [Example 8, (1S,2R)—N-(2-Hydroxycyclopentyl)-5-(4-tert-butylphenylsulfonyl-amino)-3-phenyl-1H-pyrrolo[2,3-b]pyridine-2-carboxamide] |  | 13
4 | CC(C)(C)c1ccc(S(=O)(=O)Nc2cnc3[nH]c(C(=O)NCC4CCCO4)c(-c4ccccc4)c3c2)cc1 (racemic) [Example 10, (±)-N-(Tetrahydrofuran-2-ylmethyl)-5-(4-tert-butylphenylsulfonyl-amino)-3-phenyl-1H-pyrrolo[2,3-b]pyridine-2-carboxamide] |  | 64
5 | CC(CO)NC(=O)c1[nH]c2ncc(NS(=O)(=O)c3ccc(C(C)(C)C)cc3)cc2c1-c1ccccc1 (racemic) [Example 6, (±)-N-(2-Hydroxy-1-methylethyl)-5-(4-tert-butylphenylsulfonyl-amino)-3-phenyl-1H-pyrrolo[2,3-b]pyridine-2-carboxamide] |  | 37
